Our source for the relative viability values is the supplement of paper PMC10307832.

Holding throughout (experiment): relative viability (nuclei count vs DMSO), 5 days (fraction); higher = more cells survive
Compound in the test “CUDC-101 + Tozasertib”: C#Cc1cccc(Nc2ncnc3cc(OC)c(OCCCCCCC(=O)NO)cc23)c1 [CUDC-101] + Cc1cc(Nc2cc(N3CCN(C)CC3)nc(Sc3ccc(NC(=O)C4CC4)cc3)n2)n[nH]1 [Tozasertib] (partner 0.1 µM)
The method in brief: (§1)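 Nuclei were stained with Hoechst during a one-step fixation (final 0.05% Triton X-100, 1% formaldehyde, 1 ug/ml Hoechst) carried out 5 days after dosing, then counted on 4× images. The cells, lung cancer lines in 1536-well plates, had been dosed by pin tool the day after seeding with one drug alone or a fixed anchor-drug dose plus five library-drug doses (not always all listed) in √10 steps. Relative viability is the nuclei count in treated wells divided by that in vehicle wells, and each value is the median of duplicate plates.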

Compound in the test “CUDC-101 + Alpelisib”: C#Cc1cccc(Nc2ncnc3cc(OC)c(OCCCCCCC(=O)NO)cc23)c1 [CUDC-101] + Cc1nc(NC(=O)N2CCC[C@H]2C(N)=O)sc1-c1ccnc(C(C)(C)C(F)(F)F)c1 [Alpelisib] (partner 2 µM)
The essentials: as §1

Compound in the test “CUDC-101 + AZD7762”: C#Cc1cccc(Nc2ncnc3cc(OC)c(OCCCCCCC(=O)NO)cc23)c1 [CUDC-101] + NC(=O)Nc1cc(-c2cccc(F)c2)sc1C(=O)N[C@H]1CCCNC1 [AZD7762] (partner 0.2 µM)
The method in brief:
as §1

Compound in test [1]: C1=CC=C2C(=C1)N=C(S2)C(C#N)C3=NC(=NC=C3)NCCC4=CN=CC=C4 + NC(=O)Nc1cc(-c2cccc(F)c2)sc1C(=O)N[C@H]1CCCNC1 [AZD7762] (partner 0.2 µM)
The method in brief: as §1

Take NCI-H3122: the relative viability was 0.373 with CUDC-101 + Tozasertib (first compound 0.01 µM); 0.451 with CUDC-101 + Tozasertib (first compound 0.03162 µM); 0.391 with CUDC-101 + Tozasertib (first compound 0.1 µM); 0.321 in the test with CUDC-101 + Tozasertib (first compound 0.3162 µM); 0.386 with CUDC-101 + Tozasertib (first compound 1 µM); 0.666 with CUDC-101 + Alpelisib (first compound 0.01 µM). Besides, the relative viability with CUDC-101 + Alpelisib (first compound 0.03162 µM) was found to be 0.83; in the test with CUDC-101 + Alpelisib (first compound 0.1 µM) it was 0.808; with CUDC-101 + Alpelisib (first compound 0.3162 µM), 0.875; in the test with CUDC-101 + Alpelisib (first compound 1 µM), 0.969; with CUDC-101 + AZD7762 (first compound 0.01 µM), 0.998; with CUDC-101 + AZD7762 (first compound 0.03162 µM), 0.951. The relative viability was 1 in the test with CUDC-101 + AZD7762 (first compound 0.1 µM); 1.04 with CUDC-101 + AZD7762 (first compound 0.3162 µM); 1.06 with CUDC-101 + AZD7762 (first compound 1 µM); 0.975 in test [1] (first compound 0.005 µM); 1.16 in test [1] (first compound 0.01581 µM); 0.96 in test [1] (first compound 0.05 µM). Moreover, the relative viability in test [1] (first compound 0.1581 µM) and in test [1] (first compound 0.5 µM) was 1 each time.

Take PC-3 [JPC-3]: the relative viability in the test with CUDC-101 + Tozasertib (first compound 0.01 µM) amounted to 0.89; in the test with CUDC-101 + Tozasertib (first compound 0.03162 µM), 0.847; in the test with CUDC-101 + Tozasertib (first compound 0.1 µM), 0.834; in the test with CUDC-101 + Tozasertib (first compound 0.3162 µM), 0.61; in the test with CUDC-101 + Tozasertib (first compound 1 µM) it was 0.314; with CUDC-101 + Alpelisib (first compound 0.01 µM), 1.04. The relative viability in the test with CUDC-101 + Alpelisib (first compound 0.03162 µM) was found to be 0.999; with CUDC-101 + Alpelisib (first compound 0.1 µM), 0.775; with CUDC-101 + Alpelisib (first compound 0.3162 µM) it was 0.683; with CUDC-101 + Alpelisib (first compound 1 µM), 0.307; with CUDC-101 + AZD7762 (first compound 0.01 µM), 0.731; with CUDC-101 + AZD7762 (first compound 0.03162 µM), 0.752. Besides, the relative viability with CUDC-101 + AZD7762 (first compound 0.1 µM) came to 0.65; with CUDC-101 + AZD7762 (first compound 0.3162 µM) it was 0.538; with CUDC-101 + AZD7762 (first compound 1 µM), 0.361; in test [1] (first compound 0.005 µM), 0.702; in test [1] (first compound 0.05 µM), 0.822; in test [1] (first compound 0.1581 µM) it was 0.997. The relative viability in test [1] (first compound 0.5 µM) amounted to 0.654.

As to PC-14, the relative viability came out at 0.656 with CUDC-101 + Tozasertib (first compound 0.01 µM); 0.544 with CUDC-101 + Tozasertib (first compound 0.03162 µM); 0.391 in the test with CUDC-101 + Tozasertib (first compound 0.1 µM); 0.528 with CUDC-101 + Tozasertib (first compound 0.3162 µM); 0.115 with CUDC-101 + Tozasertib (first compound 1 µM); 0.983 with CUDC-101 + Alpelisib (first compound 0.01 µM). The relative viability came out at 0.894 with CUDC-101 + Alpelisib (first compound 0.03162 µM); 0.62 with CUDC-101 + Alpelisib (first compound 0.1 µM); 0.673 with CUDC-101 + Alpelisib (first compound 0.3162 µM); 0.287 with CUDC-101 + Alpelisib (first compound 1 µM); 0.428 with CUDC-101 + AZD7762 (first compound 0.01 µM); 0.339 with CUDC-101 + AZD7762 (first compound 0.03162 µM). In addition, the relative viability in the test with CUDC-101 + AZD7762 (first compound 0.1 µM) came out at 0.214; with CUDC-101 + AZD7762 (first compound 0.3162 µM), 0.185; with CUDC-101 + AZD7762 (first compound 1 µM), 0.124; in test [1] (first compound 0.005 µM), 0.334; in test [1] (first compound 0.01581 µM), 0.238; in test [1] (first compound 0.05 µM) it was 0.396. Besides, the relative viability is 0.514 in test [1] (first compound 0.1581 µM) and 0.302 in test [1] (first compound 0.5 µM).

Consider RERF-LC-KJ, for which the relative viability in the test with CUDC-101 + Tozasertib (first compound 0.01 µM) came to 0.516; with CUDC-101 + Tozasertib (first compound 0.03162 µM), 0.505; with CUDC-101 + Tozasertib (first compound 0.1 µM) it was 0.476; with CUDC-101 + Tozasertib (first compound 0.3162 µM), 0.442; in the test with CUDC-101 + Tozasertib (first compound 1 µM), 0.371; in the test with CUDC-101 + Alpelisib (first compound 0.01 µM) it was 0.795. Also, the relative viability in the test with CUDC-101 + Alpelisib (first compound 0.03162 µM) came out at 0.835; with CUDC-101 + Alpelisib (first compound 0.1 µM), 0.828; with CUDC-101 + Alpelisib (first compound 0.3162 µM), 0.835; with CUDC-101 + Alpelisib (first compound 1 µM), 0.742; with CUDC-101 + AZD7762 (first compound 0.01 µM), 1.01; with CUDC-101 + AZD7762 (first compound 0.03162 µM) it was 0.971. For the same cell line, the relative viability in the test with CUDC-101 + AZD7762 (first compound 0.1 µM) worked out at 1.18; with CUDC-101 + AZD7762 (first compound 0.3162 µM) it was 0.922; with CUDC-101 + AZD7762 (first compound 1 µM), 0.608; in test [1] (first compound 0.005 µM), 0.984; in test [1] (first compound 0.01581 µM), 0.977; in test [1] (first compound 0.05 µM), 1.02. Further, the values for the relative viability in test [1] (first compound 0.1581 µM) and in test [1] (first compound 0.5 µM) were 1.23 and 0.964, respectively.
